Source: ChEMBL document CHEMBL5512598, “Current advances and development strategies of orally bioavailable PROTACs” (Eur J Med Chem, 2023)

Tests used:
[1] = target: von Hippel-Lindau disease tumor suppressor/Histone-lysine N-methyltransferase EZH2 (Homo sapiens, UniProt Q15910+P40337, Y641N); assay: PROTAC activity against VHL/EZH2 Y641N mutant in human DB cells assessed as degradation of EZH2 protein expression incubated for 24 hrs by Western blot analysis; assay type: cell-based
[2] = Oral bioavailability in BALB/c mouse at 30 mg/kg measured for 24 hrs by UPLC-MS/MS analysis; assay type: ADME, organism-based; details: in vivo
[3] = Cmax in BALB/c mouse at 30 mg/kg measured for 24 hrs by UPLC-MS/MS analysis; assay type: ADME, organism-based; details: in vivo
[4] = Tmax in BALB/c mouse at 30 mg/kg measured for 24 hrs by UPLC-MS/MS analysis; assay type: ADME, organism-based; details: in vivo
[5] = AUC (0 to t) in BALB/c mouse at 30 mg/kg measured for 24 hrs by UPLC-MS/MS analysis; assay type: ADME, organism-based; details: in vivo
[6] = Oral bioavailability in rat at 5 mg/kg by LC-MS/MS analysis; assay type: ADME, organism-based; details: in vivo
[7] = Oral bioavailability in mouse at 5 mg/kg by LC-MS/MS analysis; assay type: ADME, organism-based; details: in vivo
[8] = Cmax in CD-1 mouse plasma at 10 mg/kg, po by LC-MS/MS analysis; assay type: ADME, organism-based
[9] = Half life in CD-1 mouse at 10 mg/kg, po measured for 24 hrs by LC-MS/MS analysis; assay type: ADME, organism-based; details: in vivo
[10] = AUC (0 to t) in CD-1 mouse at 10 mg/kg, po measured for 24 hrs by LC-MS/MS analysis; assay type: ADME, organism-based; details: in vivo
[11] = AUC in mouse at 30 mg/kg, po; assay type: ADME, organism-based; details: in vivo
[12] = Half life in mouse at 30 mg/kg, po measured upto 24 hrs by LC-MS/MS analysis; assay type: ADME, organism-based; details: in vivo
[13] = Oral bioavailability in Sprague-Dawley rat at 40 mg/kg measured up to 24 hrs by LC-MS analysis; assay type: ADME, organism-based; details: in vivo
[14] = Cmax in Sprague-Dawley rat at 40 mg/kg, po measured after 24 hrs by LC-MS/MS analysis; assay type: ADME, organism-based; details: in vivo
[15] = Tmax in Sprague-Dawley rat at 40 mg/kg, IG measured up to 24 hrs by LC-MS/MS analysis; assay type: ADME, organism-based; details: in vivo, po
[16] = Half life in Sprague-Dawley rat at 40 mg/kg, po measured after 24 hrs by LC-MS/MS analysis; assay type: ADME, organism-based; details: in vivo
[17] = AUC (0 to t) in Sprague-Dawley rat at 40 mg/kg, IG measured up to 24 hrs by LC-MS/MS analysis; assay type: ADME, organism-based; details: in vivo, po
[18] = target: T1, Protein cereblon/Tyrosine-protein kinase BTK (Homo sapiens, UniProt Q06187+Q96SW2, C481S); assay: PROTAC activity at CRBN/BTK C481S mutant in human DLBCL cells assessed as degradation of BTK protein incubated for 4 hrs by HTRF assay; assay type: cell-based
T1 sequence (Q06187 2-659 C481S limits assumed, stated change not applied): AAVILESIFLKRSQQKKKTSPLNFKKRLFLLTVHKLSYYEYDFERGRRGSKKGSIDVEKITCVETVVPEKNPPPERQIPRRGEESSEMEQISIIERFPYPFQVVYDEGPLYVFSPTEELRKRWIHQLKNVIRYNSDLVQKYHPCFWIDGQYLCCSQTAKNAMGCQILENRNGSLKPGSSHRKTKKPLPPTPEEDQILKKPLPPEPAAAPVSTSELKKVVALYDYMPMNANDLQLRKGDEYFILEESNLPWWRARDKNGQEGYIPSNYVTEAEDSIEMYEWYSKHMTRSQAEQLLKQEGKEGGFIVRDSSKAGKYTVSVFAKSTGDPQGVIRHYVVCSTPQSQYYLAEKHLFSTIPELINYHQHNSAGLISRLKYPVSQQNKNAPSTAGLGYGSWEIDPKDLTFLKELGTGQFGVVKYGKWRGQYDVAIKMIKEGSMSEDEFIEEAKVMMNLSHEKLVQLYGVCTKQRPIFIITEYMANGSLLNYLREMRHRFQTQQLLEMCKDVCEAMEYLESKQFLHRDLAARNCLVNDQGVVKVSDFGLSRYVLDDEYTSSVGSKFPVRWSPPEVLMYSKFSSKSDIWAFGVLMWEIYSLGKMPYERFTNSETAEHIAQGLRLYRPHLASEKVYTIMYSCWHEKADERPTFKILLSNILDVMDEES
T1 sequence (Q96SW2 whole entry, stated change not applied): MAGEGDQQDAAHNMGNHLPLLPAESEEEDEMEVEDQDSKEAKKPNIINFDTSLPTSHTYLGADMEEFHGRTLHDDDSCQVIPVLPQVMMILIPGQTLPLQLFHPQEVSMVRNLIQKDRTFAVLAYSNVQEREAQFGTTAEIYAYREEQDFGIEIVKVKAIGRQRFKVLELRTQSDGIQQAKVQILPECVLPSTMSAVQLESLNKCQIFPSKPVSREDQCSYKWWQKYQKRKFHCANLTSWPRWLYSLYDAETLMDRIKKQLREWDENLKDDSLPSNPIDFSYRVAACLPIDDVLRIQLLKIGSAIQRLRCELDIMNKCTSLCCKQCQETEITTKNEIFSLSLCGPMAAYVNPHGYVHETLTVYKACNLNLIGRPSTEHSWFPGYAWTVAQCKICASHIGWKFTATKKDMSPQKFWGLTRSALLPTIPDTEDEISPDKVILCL

[19] = target: T1, Protein cereblon/Tyrosine-protein kinase BTK; assay: PROTAC activity at CRBN/BTK in human TMD8 cells assessed as protein degradation; assay type: cell-based
[20] = test system: Protein cereblon/Tyrosine-protein kinase BTK (Homo sapiens), Q06187+Q96SW2 [C481S]; assay: PROTAC activity at CRBN/BTK in human TMD8 cells assessed as maximal protein degradation relative to control; assay type: cell-based
[21] = Oral availability in ICR mouse at 30 mg/kg by HPLC-MS/MS analysis; assay type: ADME, organism-based; details: in vivo
[22] = AUC (0 to t) in ICR mouse at 30 mg/kg, po measured upto 24 hrs by HPLC-MS/MS analysis; assay type: ADME, organism-based; details: in vivo

Chain of von Hippel-Lindau disease tumor suppressor/Histone-lysine N-methyltransferase EZH2 (P40337 whole entry, stated change not applied): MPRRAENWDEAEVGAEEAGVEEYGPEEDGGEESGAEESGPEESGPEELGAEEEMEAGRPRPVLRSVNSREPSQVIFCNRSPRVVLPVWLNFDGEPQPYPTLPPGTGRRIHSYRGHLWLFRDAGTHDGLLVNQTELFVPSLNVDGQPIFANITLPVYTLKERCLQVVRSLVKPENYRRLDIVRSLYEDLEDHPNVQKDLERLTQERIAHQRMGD
Chain of von Hippel-Lindau disease tumor suppressor/Histone-lysine N-methyltransferase EZH2 (Q15910 whole entry Y641N, stated change not applied): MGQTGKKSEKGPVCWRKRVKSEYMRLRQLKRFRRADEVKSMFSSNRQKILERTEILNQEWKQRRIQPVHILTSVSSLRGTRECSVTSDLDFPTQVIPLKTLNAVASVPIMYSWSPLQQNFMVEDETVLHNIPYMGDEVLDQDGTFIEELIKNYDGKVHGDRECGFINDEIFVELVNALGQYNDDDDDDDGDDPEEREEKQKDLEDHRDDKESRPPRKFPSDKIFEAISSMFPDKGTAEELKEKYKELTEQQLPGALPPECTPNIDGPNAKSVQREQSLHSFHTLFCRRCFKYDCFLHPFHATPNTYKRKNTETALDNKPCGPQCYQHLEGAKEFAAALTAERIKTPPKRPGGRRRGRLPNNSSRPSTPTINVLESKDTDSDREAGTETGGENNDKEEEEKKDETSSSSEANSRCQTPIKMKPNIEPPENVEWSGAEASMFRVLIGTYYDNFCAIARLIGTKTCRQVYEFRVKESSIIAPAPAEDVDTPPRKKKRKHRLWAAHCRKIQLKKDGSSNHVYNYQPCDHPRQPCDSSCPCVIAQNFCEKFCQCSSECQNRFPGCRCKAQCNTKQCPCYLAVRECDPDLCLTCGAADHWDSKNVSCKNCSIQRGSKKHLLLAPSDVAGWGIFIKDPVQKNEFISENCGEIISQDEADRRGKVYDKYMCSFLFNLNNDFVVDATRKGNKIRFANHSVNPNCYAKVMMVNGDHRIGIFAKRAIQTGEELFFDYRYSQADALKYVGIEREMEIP

Cc1ncsc1-c1ccc(CNC(=O)[C@@H]2C[C@@H](O)CN2C(=O)[C@@H](NC(=O)CCCNC(=O)c2ccc(-c3cnc(NCc4ccco4)n4cnnc34)cc2)C(C)(C)C)cc1
DC50 [1]: 670000 pM

Cc1ncsc1-c1ccc(CNC(=O)[C@@H]2C[C@@H](O)CN2C(=O)[C@@H](NC(=O)COCCCCOc2ccc(C3CCN(C4=Nn5c(nnc5C(F)(F)F)CC4)CC3)cc2)C(C)(C)C)cc1
bioavailability [2]: 23% | Cmax [3]: 7060 ng/mL | Tmax [4]: 1.67 h | AUC(0-t) at 24 h [5]: 18000 ng·h/mL

N#Cc1ccc(O[C@H]2CC[C@H](NC(=O)c3ccc(N4CCC(CN5CCN(c6cc7c(cc6F)C(=O)N(C6CCC(=O)NC6=O)C7=O)CC5)CC4)nn3)CC2)cc1Cl (some centres not stated) [BAVDEGALUTAMIDE]
bioavailability [6]: 23.8% | bioavailability [7]: 37.9%

COc1cc(N2CCC(N3CCN(CCC#Cc4cccc5c4CN(C4CCC(=O)NC4=O)C5=O)CC3)CC2)ccc1Nc1ncc(Cl)c(Nc2ccccc2P(C)(C)=O)n1 (configuration not stated)
Cmax [8]: 3680 ng/mL | half-life [9]: 2.08 h | AUC(0-t) at 24 h [10]: 19700 ng·h/mL

O=C1CC[C@H](N2Cc3cc(N4CCN(CC5CCN(c6ccc([C@@H]7c8ccc(O)cc8CC[C@@H]7c7ccccc7)cc6)CC5)CC4)ccc3C2=O)C(=O)N1 [VEPDEGESTRANT]
AUC [11]: 5720 ng·h/mL | half-life [12]: 28 h

N#Cc1cccc(-c2ccc(=O)n(Cc3cccc(-c4ncc(OCC5CCN(CC(=O)N6CCN(c7ccc8c(c7)C(=O)N(C7CCC(=O)NC7=O)C8=O)CC6)CC5)cn4)c3)n2)c1 (configuration not stated)
bioavailability [13]: 0.7% | Cmax [14]: 8.47 ng/mL | Tmax [15]: 1.75 h | half-life [16]: 15.8 h | AUC(0-t) at 24 h [17]: 74.2 ng·h/mL

CN1CCN([C@@H]2CCCN(c3cnc(C(N)=O)c(Nc4ccc(C5CCN(CC6CCN(c7ccc(C(=O)N[C@H]8CCC(=O)NC8=O)nc7)CC6)CC5)cc4)n3)C2)C1=O [NX-5948]
DC50 [18]: 320 pM

CN1CCN([C@@H]2CCCN(c3cnc(C(N)=O)c(Nc4ccc(C5CCN(C[C@@H]6CCN(c7ccc8c(c7)C(=O)N(C7CCC(=O)NC7=O)C8=O)C6)CC5)cc4)n3)C2)C1=O (some centres not stated)
DC50 [19]: 500 pM | Emax [20]: 96%

Cc1ncsc1-c1ccc([C@H](CC[C@H](C)CCN2CCC(c3ccc4c(c3)n(C3CCCC3)c3nc(=O)c5c(Br)cccc5n43)CC2)NC(=O)[C@@H]2C[C@@H](O)CN2C(=O)[C@@H](NC(=O)C2(F)CC2)C(C)(C)C)cc1
bioavailability [21]: 22% | AUC(0-t) at 24 h [22]: 50000 ng·h/mL
